Results published in article PMC7048932, “Examining sterically demanding lysine analogs for histone lysine methyltransferase catalysis” (Scientific Reports, 2020).

Tests used:
SETD8 [1] = target: T1, SETD8 (Homo sapiens, UniProt Q9NQR1); assay: Competition study between H4K20 and analog peptides with SETD8 (MALDI-MS); type: biochemical; details: SETD8, equimolar H4K20 (100 µM) and H4KCP20 (100 µM), SAM 200 µM, 1 h, 37 °C
T1 construct: His6 (N); made in house; host or cells: E. coli BL21 (DE3)pLysS-rosetta
T1 sequence (Q9NQR1 1-393): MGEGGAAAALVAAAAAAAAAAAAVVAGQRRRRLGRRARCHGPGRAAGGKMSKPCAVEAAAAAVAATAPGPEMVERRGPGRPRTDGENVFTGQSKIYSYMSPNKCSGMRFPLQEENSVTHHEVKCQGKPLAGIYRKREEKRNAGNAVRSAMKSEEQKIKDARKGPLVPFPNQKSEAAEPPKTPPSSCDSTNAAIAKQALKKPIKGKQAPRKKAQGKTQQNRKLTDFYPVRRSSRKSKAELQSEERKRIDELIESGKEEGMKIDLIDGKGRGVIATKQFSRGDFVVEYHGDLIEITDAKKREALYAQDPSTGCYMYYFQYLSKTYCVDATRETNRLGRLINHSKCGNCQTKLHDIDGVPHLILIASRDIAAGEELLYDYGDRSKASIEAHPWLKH
Text: Next, we carried out competition studies between histone peptides that bear lysine and its analogs. In the presence of SETD8, SAM and equimolar amounts of H4K20 and H4KCP20, we observed the formation of both monomethylated products, albeit a comparatively larger degree of monomethylation of H4K20 was found (70% of H4K20me, 40% of H4KCP20me). […] It is also possible that subtle differences in sterics and electronics of H4KCP20 when compared to H4K20 do contribute to observed differences in the degree of methylation in the competition experiment.
Figure S31. MALDI-MS based assay showing ( a) SETD8-catalyzed monomethylation of […]
(b) SETD8-catalyzed methylation of H4K20 (100 µM) in the presence of H4F 3a20 (100 µM) and SAM (200 µM) after 1 h at 37 °C; ( c) SETD8-catalyzed methylation of H4K20 (100 µM) in the presence of H4F 4a20 (100 µM) and SAM (200 µM) after 1 h at 37 °C; ( d) SETD8-catalyzed methylation of H4K20 (100 µM) in the presence of H4A p20 (100 µM) and SAM (200 µM) after 1 h at 37 °C; ( e) SETD8-catalyzed methylation of H4K20 (100 µM) in the presence of […]
(1 picture or pasted object on this page, not shown here)

SETD8 [2] = target: T1, SETD8; assay: MALDI-TOF MS methylation assay of H4K20 peptides with SETD8; type: biochemical; details: peptide 100 µM, 37 °C; for SETD8-catalyzed methylation, result in words, increased SETD8/SAM and prolonged incubation: SETD8 10 µM, SAM 1 mM, 1 h and 5 h, MALDI-MS
Procedure: MALDI-MS methyltransferases activity experiments were performed using a Bruker instrument in the reflectron positive mode. […] In case of G9a and GLP, similar conditions were used, except (500 µM) of SAM was added to the reaction mixture. Samples were incubated in an Eppendorf vial 1.5 mL using thermomixer for 1 h at 37 °C. A 5 µL aliquot of the solution was mixed with 5 µL of MeOH, after which 5 µL of this mixture was mixed with 5 µL of α-cyano-4-hydroxycinamic acid matrix (CHCA, 5 mg/mL in 125:125 µL acetonitrile/water). The spots were placed on a stainless steel MALDI plate (MS 96 target ground steel BC of Bruker, Germany). The mass corresponding to one monomethylation observed as +14 Da, dimethylation observed as +28 Da and trimethylation observed as +42 Da. The enzymatic activity was determined by taking the peak areas of each methylation state, including all isotopes and adducts, and was annotated using FlexAnalysis software (Bruker Daltonics, Germany). […] Methylated peptide substrates were repeated five times and the unmethylated substrates were triplicated. Sequences of the examined peptides are given in (Supplementary Table 1).

SETD8 [3] = target: T1, SETD8; assay: Enzyme kinetics of SETD8-catalyzed methylation (MALDI-TOF MS); type: biochemical; details: MALDI-TOF MS assay
Procedure: To establish the substrate efficiency of lysine- and KCP-containing histone peptides, we carried out enzyme kinetics analysis, employing the MALDI-TOF MS assays. Both enzymes preferentially catalyze methylation of natural histone sequences, however, bulkier KCP-containing peptides still underwent favorable kinetics profiles (Table 1 and Supplementary Fig. 30).
(§1) MALDI-MS methyltransferases activity experiments were performed using a Bruker instrument in the reflectron positive mode. For regular methyltransferase standard conditions experiment which carried out in 30 µL total volume, the mixture contains peptide (100 µM), SAM (200 µM), SETD8 or SETD7 (2 µM), in assay buffer 50 mM Tris at optimal pH 8.0. In case of G9a and GLP, similar conditions were used, except (500 µM) of SAM was added to the reaction mixture. Samples were incubated in an Eppendorf vial 1.5 mL using thermomixer for 1 h at 37 °C. A 5 µL aliquot of the solution was mixed with 5 µL of MeOH, after which 5 µL of this mixture was mixed with 5 µL of α-cyano-4-hydroxycinamic acid matrix (CHCA, 5 mg/mL in 125:125 µL acetonitrile/water). The spots were placed on a stainless steel MALDI plate (MS 96 target ground steel BC of Bruker, Germany). The mass corresponding to one monomethylation observed as +14 Da, dimethylation observed as +28 Da and trimethylation observed as +42 Da. The enzymatic activity was determined by taking the peak areas of each methylation state, including all isotopes and adducts, and was annotated using FlexAnalysis software (Bruker Daltonics, Germany). […] Methylated peptide substrates were repeated five times and the unmethylated substrates were triplicated. Sequences of the examined peptides are given in (Supplementary Table 1).

SETD7 [4] = assay: MALDI-TOF MS methylation assay of H3K4 peptides with SETD7; type: biochemical, human; details: peptide 100 µM, SETD7 10 µM, SAM 1 mM, 1 h and 3 h, 37 °C
SETD7 [5] = assay: as above; type: biochemical, human; details: peptide 100 µM, SETD7 2 µM, SAM 200 µM, 1 h, 37 °C
Procedure: as §1

SETD7 [6] = assay: Inhibition study of SETD7 (MALDI-TOF MS); type: biochemical, human; details: peptide 100 µM, SETD7 100 nM, SAM 20 µM, 21-mer H3 peptide 5 µM, 30 min, 37 °C
Procedure: A mixture of histone peptide (0–100 µM final conc.) and SETD7, G9a or GLP (100 nM final conc.) was preincubated for 5 minutes at 37 °C in 18 µL of 50 mM glycine pH 8.8 containing 2.5% glycerol as assay buffer. Then 2 µL of a pre-mixture of SAM (20 µM final conc.) and 21-mer H3 histone peptide (residues 1–21, 5 µM final conc.) was added to afford a final assay mixture (20 µL) and the enzymatic reaction was incubated for an additional 30 minutes at 37 °C before quenching with 20 μL of MeOH. The quenched reaction (1 μL) was mixed with a solution of saturated α-cyano-4-hydroxycinnamic acid (5 μL) and spotted on the MALDI plate for crystallisation. The enzymatic activity was determined by taking the peak areas of each methylation state (including all isotopes and adducts) and is expressed relative to a control reaction in the absence of unnatural histone peptides. Each inhibition experiment was carried out in replicate.

[7] = SETD8 2 µM, SAM 200 µM, 50 mM Tris pH 8.0, 1 h, MALDI-TOF MS

For “GGAKRHRK^20VLRDNIQ [H4K20, reference compound]”, which “monomethylated product formed in competition experiment” value (SETD8 [1]) is on record?
The value was 70%.

What about the “SETD8-catalyzed methylation, result in words” value (SETD8 [2]; [7]) of the same substance?
The value was “quantitative monomethylation”.

For “GGAKRHR(Kcp20)VLRDNIQ [H4KCP20, H4K20 peptide bearing cyclopropyllysine at position 20]”, which Km (SETD8 [3]) is on record?
The Km was 172 ± 37 µM.

And the kcat (SETD8 [3])?
The kcat was 0.68 ± 0.08 min⁻¹.

And the kcat/KM (SETD8 [3])?
The kcat/KM was 3.96 mM⁻¹ min⁻¹.

And the “monomethylated product formed in competition experiment” value (SETD8 [1])?
The value was 40%.

What about the “SETD8-catalyzed methylation, result in words” value (SETD8 [2]; [7]) of the same substance?
The value was “methylation”.

And the “monomethylated product formed (H4KCP20me)” value (SETD8 [2]; [7])?
The value was 60%.

What about the “SETD8-catalyzed methylation, result in words, increased SETD8/SAM and prolonged incubation” value (SETD8 [2]) of the same substance?
Its value is “almost complete formation of the monomethylated H4KCP20me product”.

What about the “SETD8-catalyzed methylation, result in words, increased SETD8/SAM and prolonged incubation” value (SETD8 [2]; listed as H4K CP20) of the same substance?
Its value is “predominant monomethylation”.

Which “SETD7-catalyzed methylation, result in words, high SETD7/SAM” value (SETD7 [4]) does the source give for “ART(Kcp4)QTARKSTGGKA [H3KCP4, H3K4 peptide bearing cyclopropyllysine at position 4]” here?
The value was “increased amount of the monomethylated H3KCP4me product”.

What about the “SETD7-catalyzed methylation, result in words, high SETD7/SAM” value (SETD7 [4]; listed as H3K CP4) of the same substance?
The value was “monomethylation”.

What about the “SETD7-catalyzed methylation, result in words” value (SETD7 [5]) of the same substance?
Its value is “only traces”.

What about the “SETD7-catalyzed methylation, result in words” value (SETD7 [5]; listed as H3K CP4) of the same substance?
Its value is “traces of monomethylation”.

For “ART(F4a4)QTARKSTGGKA [H3F4a4, H3K4 peptide bearing para-aminophenylalanine at position 4]”, which “SETD7-catalyzed methylation, result in words” value (SETD7 [5]) is on record?
Its value is “lack of methylation”.

What about the “inhibition of SETD7 at 100 µM peptide” value (SETD7 [6]) of the same substance?
The value was 11%.
